According to ChEMBL document CHEMBL4418304, “Combinations for the treatment of kidney stones” (2017):

Experiments:
[1] = target: T1, Hydroxyproline dehydrogenase (Homo sapiens, UniProt Q9UF12); experiment: Inhibition of recombinant human HYPDH expressed in Escherichia coli using hydroxyproline as substrate preincubated for 5 mins followed by substrate addition in presence of FAD as cofactor
T1 sequence (Q9UF12 whole entry): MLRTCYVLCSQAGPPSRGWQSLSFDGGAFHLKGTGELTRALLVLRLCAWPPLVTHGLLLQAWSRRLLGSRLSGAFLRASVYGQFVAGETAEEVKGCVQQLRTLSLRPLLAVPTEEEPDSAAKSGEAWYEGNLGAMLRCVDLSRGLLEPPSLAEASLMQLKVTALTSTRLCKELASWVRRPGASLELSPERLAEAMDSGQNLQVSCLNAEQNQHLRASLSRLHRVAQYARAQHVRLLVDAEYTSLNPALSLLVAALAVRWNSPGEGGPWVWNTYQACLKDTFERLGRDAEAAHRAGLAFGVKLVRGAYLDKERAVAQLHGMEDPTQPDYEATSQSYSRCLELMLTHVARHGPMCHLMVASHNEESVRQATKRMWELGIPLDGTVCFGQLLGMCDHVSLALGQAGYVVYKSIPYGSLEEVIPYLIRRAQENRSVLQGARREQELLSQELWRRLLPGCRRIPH

2-Hydroxyacid oxidase 1 = target: T2, 2-Hydroxyacid oxidase 1 (Homo sapiens, UniProt Q9UJM8); experiment: Inhibition of recombinant human liver HAOX1 using glycolate as substrate preincubated for 5 mins followed by substrate addition in presence of […]
T2 sequence (Q9UJM8 whole entry): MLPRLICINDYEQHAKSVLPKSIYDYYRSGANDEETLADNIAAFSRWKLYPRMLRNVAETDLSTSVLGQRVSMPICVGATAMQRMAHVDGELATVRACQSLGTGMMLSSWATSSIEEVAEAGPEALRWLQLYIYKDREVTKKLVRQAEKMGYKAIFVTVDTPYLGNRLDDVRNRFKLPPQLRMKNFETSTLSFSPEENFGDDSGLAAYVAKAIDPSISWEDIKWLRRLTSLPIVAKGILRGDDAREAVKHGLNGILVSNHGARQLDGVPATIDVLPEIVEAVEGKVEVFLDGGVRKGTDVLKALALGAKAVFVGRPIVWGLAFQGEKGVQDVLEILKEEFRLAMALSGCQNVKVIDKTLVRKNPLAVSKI

| SMILES | IC50 ([1]; read-out: IC50) [µM] | other results |
| --- | --- | --- |
| O=C(O)[C@@H]1C[C@@H](O)CS1 | 330 |  |
| O=C1CS[C@H](C(=O)O)C1 | 320 |  |
| O=C(O)[C@@H]1CC[C@@H](O)C1 | 2100 |  |
| O=C(O)[C@H]1CC[C@@H](O)C1 | > 10000 |  |
| O=C(O)c1cc(O)cs1 | < 1000 |  |
| O=C(O)C1CCCO1 (stereo unspecified) | 1500 |  |
| O=C1CC[C@H](C(=O)O)C1 | 380 |  |
| N[C@H]1CC[C@H](C(=O)O)C1 | 630 |  |
| CCCCCCCCCCCCSc1[nH]nnc1C(=O)O |  | Ki (2-Hydroxyacid oxidase 1): 0.015 µM |
| O=C(O)[C@H]1CC[C@H](O)C1 | 600 |  |
| O=C(O)c1ccco1 |  | IC50 [1]: Nd(Insoluble) |

Second part, led by results:

| IC50 ([1]; read-out: IC50) [µM] | SMILES | other results |
| --- | --- | --- |
| 2900 | O=C(O)C1=NN=C(O)C1 |  |
| 370 | O=C(O)[C@@H]1C[C@H](O)CS1 |  |
| 480 | O=C(O)C[C@H]1CC[C@H](O)C1 |  |
| 370 | O=C1CC[C@@H](C(=O)O)C1 |  |
| 290 | O=C(O)[C@@H]1CC(O)(O)CS1 |  |
